{"source": "patent US20110166121A1", "about": "(LG LIFE SCIENCES LTD., priority 2008, published 2011)", "data": [{"test_system": "Human platelet aggregation caused by ADP", "test": "Inhibition of ADP-induced platelet aggregation (Mimic-human PRP)", "type": "cell-based", "conditions": "20 μM ADP, human platelet concentrate diluted with PPP, absorption at 595 nm", "method_in_brief": "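Human PRP diluted with PPP to 3–4×10^8 platelets/mL was preincubated 20 min at room temperature with compound (0.01–30 μM, DMSO), then stimulated with 20 μM ADP. Aggregation read as A595 increase at 3 min versus 0 and 20 μM ADP controls; Ki from sigmoidal non-linear regression.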", "units": {"Ki": "nM"}, "values": [{"smiles": "CCCc1cc2c(N3CCn4c(nnc4C(F)(F)F)C3)nc(OC3CN(C(=O)C(C)C)C3)nc2s1", "note": "[Example 8-27, 2-Methyl-1-{3-[6-propyl-4-(3-trifluoromethyl-5,6-dihydro-8H-[1,2,4]triazolo[4,3-a]pyrazin-7-yl)-thieno[2,3-d]pyrimidin-2-yloxy]-azetidin-1-yl}-propan-1-one]", "Ki": 260}, {"smiles": "CCCc1cc2c(N3CCn4c(nnc4C(F)(F)F)C3)nc(OC[C@H]3CCCN3C(C)=O)nc2s1", "note": "[Example 8-28, -{(R)-2-[6-Propyl-4-(3-trifluoromethyl-5,6-dihydro-8H-[1,2,4]triazolo[4,3-a]pyrazin-7-yl)-thieno[2,3-d]pyrimidin-2-yloxymethyl]-pyrrolidin-1-yl}-ethanone]", "Ki": 45}, {"smiles": "CCCC(=O)N1CCC[C@@H]1COc1nc(N2CCn3c(nnc3C(F)(F)F)C2)c2cc(CCC)sc2n1", "note": "[Example 8-29, 1-{(R)-2-[6-Propyl-4-(3-trifluoromethyl-5,6-dihydro-8H-[1,2,4]triazolo[4,3-a]pyrazin-7-yl)-thieno[2,3-d]pyrimidin-2-yloxymethyl]-pyrrolidin-1-yl}-butan-1-one]", "Ki": 170}, {"smiles": "CCCc1cc2c(N3CCn4c(nnc4C(F)(F)F)C3)nc(OC[C@H]3CCCN3C(=O)C(C)C)nc2s1", "note": "[Example 8-30, 2-Methyl-1-{(R)-2-[6-propyl-4-(3-trifluoromethyl-5,6-dihydro-8H-[1,2,4]triazolo[4,3-a]pyrazin-7-yl)-thieno[2,3-d]pyrimidin-2-yloxymethyl]-pyrrolidin-1-yl}-propan-1-one]", "Ki": 140}, {"smiles": "CCCc1cc2c(N3CCn4c(nnc4C(F)(F)F)C3)nc(OC[C@@H]3CCCN3C(C)=O)nc2s1", "note": "[Example 8-31, 1-{(S)-2-[6-Propyl-4-(3-trifluoromethyl-5,6-dihydro-8H-[1,2,4]triazolo[4,3-a]pyrazin-7-yl)-thieno[2,3-d]pyrimidin-2-yloxymethyl]-pyrrolidin-1-yl}-ethanone]", "Ki": 19}, {"smiles": "CCCC(=O)N1CCC[C@H]1COc1nc(N2CCn3c(nnc3C(F)(F)F)C2)c2cc(CCC)sc2n1", "note": "[Example 8-32, 1-{(S)-2-[6-Propyl-4-(3-trifluoromethyl-5,6-dihydro-8H-[1,2,4]triazolo[4,3-a]pyrazin-7-yl)-thieno[2,3-d]pyrimidin-2-yloxymethyl]-pyrrolidin-1-yl}-butan-1-one]", "Ki": 62}, {"smiles": "CCCc1cc2c(N3CCn4c(nnc4C(F)(F)F)C3)nc(OC[C@@H]3CCCN3C(=O)C(C)C)nc2s1", "note": "[Example 8-33, 2-Methyl-1-{(S)-2-[6-propyl-4-(3-trifluoromethyl-5,6-dihydro-8H-[1,2,4]triazolo[4,3-a]pyrazin-7-yl)-thieno[2,3-d]pyrimidin-2-yloxymethyl]-pyrrolidin-1-yl}-propan-1-one]", "Ki": 43}, {"smiles": "CCCc1cc2c(N3CCn4c(nnc4C(F)(F)F)C3)nc(OC[C@@H]3CCN(C(C)=O)C3)nc2s1", "note": "[Example 8-34, 1-{(R)-3-[6-Propyl-4-(3-trifluoromethyl-5,6-dihydro-8H-[1,2,4]triazolo[4,3-a]pyrazin-7-yl)-thieno[2,3-d]pyrimidin-2-yloxymethyl]-pyrrolidin-1-yl}-ethanone]", "Ki": 45}, {"smiles": "CCCC(=O)N1CC[C@@H](COc2nc(N3CCn4c(nnc4C(F)(F)F)C3)c3cc(CCC)sc3n2)C1", "note": "[Example 8-35, 1-{(R)-3-[6-Propyl-4-(3-trifluoromethyl-5,6-dihydro-8H-[1,2,4]triazolo[4,3-a]pyrazin-7-yl)-thieno[2,3-d]pyrimidin-2-yloxymethyl]-pyrrolidin-1-yl}-butan-1-one]", "Ki": 49}, {"smiles": "CCCc1cc2c(N3CCn4c(nnc4C(F)(F)F)C3)nc(OC[C@@H]3CCN(C(=O)C(C)C)C3)nc2s1", "note": "[Example 8-36, 2-Methyl-1-{(R)-3-[6-propyl-4-(3-trifluoromethyl-5,6-dihydro-8H-[1,2,4]triazolo[4,3-a]pyrazin-7-yl)-thieno[2,3-d]pyrimidin-2-yloxymethyl]-pyrrolidin-1-yl}-propan-1-one]", "Ki": 45}, {"smiles": "CCCc1cc2c(N3CCn4c(nnc4C(F)(F)F)C3)nc(OC[C@H]3CCN(C(C)=O)C3)nc2s1", "note": "[Example 8-37, 1-{(S)-3-[6-Propyl-4-(3-trifluoromethyl-5,6-dihydro-8H-[1,2,4]triazolo[4,3-a]pyrazin-7-yl)-thieno[2,3-d]pyrimidin-2-yloxymethyl]-pyrrolidin-1-yl}-ethanone]", "Ki": 43}, {"smiles": "CCCC(=O)N1CC[C@H](COc2nc(N3CCn4c(nnc4C(F)(F)F)C3)c3cc(CCC)sc3n2)C1", "note": "[Example 8-38, 1-{(S)-3-[6-Propyl-4-(3-trifluoromethyl-5,6-dihydro-8H-[1,2,4]triazolo[4,3-a]pyrazin-7-yl)-thieno[2,3-d]pyrimidin-2-yloxymethyl]-pyrrolidin-1-yl}-butan-1-one]", "Ki": 110}, {"smiles": "CCCc1cc2c(N3CCn4c(nnc4C(F)(F)F)C3)nc(OC[C@H]3CCN(C(=O)C(C)C)C3)nc2s1", "note": "[Example 8-39, 2-Methyl-1-{(S)-3-[6-propyl-4-(3-trifluoromethyl-5,6-dihydro-8H-[1,2,4]triazolo[4,3-a]pyrazin-7-yl)-thieno[2,3-d]pyrimidin-2-yloxymethyl]-pyrrolidin-1-yl}-propan-1-one]", "Ki": 76}, {"smiles": "CCCc1cc2c(N3CCn4c(nnc4C(F)(F)F)C3)nc(N3CC(O)C(NC(=O)OCC)C3)nc2s1", "note": "(centres unmarked) [Example 9-1, {4-Hydroxy-1-[6-propyl-4-(3-trifluoromethyl-5,6-dihydro-8H-[1,2,4]triazolo[4,3-a]pyrazin-7-yl)-thieno[2,3-d]pyrimidin-2-yl]-pyrrolidin-3-yl}-carbamic acid ethyl ester]", "Ki": 18}, {"smiles": "CCCc1cc2c(N3CCn4c(nnc4C(F)(F)F)C3)nc(N3CC(O)C(NC(=O)OC)C3)nc2s1", "note": "(centres unmarked) [Example 9-2, {4-Hydroxy-1-[6-propyl-4-(3-trifluoromethyl-5,6-dihydro-8H-[1,2,4]triazolo[4,3-a]pyrazin-7-yl)-thieno[2,3-d]pyrimidin-2-yl]-pyrrolidin-3-yl}-carbamic acid methyl ester]", "Ki": 8}, {"smiles": "CCCc1cc2c(N3CCn4c(nnc4C(F)(F)F)C3)nc(N3CC[C@H](NC(=O)Oc4ccc(F)cc4)C3)nc2s1", "note": "[Example 9-4, {(S)-1-[6-Propyl-4-(3-trifluoromethyl-5,6-dihydro-8H-[1,2,4]triazolo[4,3-a]pyrazin-7-yl)-thieno[2,3-d]pyrimidin-2-yl]-pyrrolidin-3-yl}-carbamic acid 4-fluoro-phenyl ester]", "Ki": 280}, {"smiles": "CCCc1cc2c(N3CCn4c(nnc4C(F)(F)F)C3)nc(N3CC[C@H](NC(=O)C4CCCC4)C3)nc2s1", "note": "[Example 9-5, Cyclopentanecarboxylic Acid {(S)-1-[6-propyl-4-(3-trifluoromethyl-5,6-dihydro-8H-[1,2,4]triazolo[4,3-a]pyrazin-7-yl)-thieno[2,3-d]pyrimidin-2-yl]-pyrrolidin-3-yl}-amide]", "Ki": 130}, {"smiles": "CCCc1cc2c(N3CCn4c(nnc4C(F)(F)F)C3)nc(N3CC[C@H](NC(=O)C4CCCCC4)C3)nc2s1", "note": "[Example 9-9, Cyclohexanecarboxylic Acid {(S)-1-[6-propyl-4-(3-trifluoromethyl-5,6-dihydro-8H-[1,2,4]triazolo[4,3-a]pyrazin-7-yl)-thieno[2,3-d]pyrimidin-2-yl]-pyrrolidin-3-yl}-amide]", "Ki": 300}, {"smiles": "CCCc1cc2c(N3CCn4c(nnc4C(F)(F)F)C3)nc(N3CC[C@H](NC(=O)c4ccc(Cl)s4)C3)nc2s1", "note": "[Example 9-11, 5-Chloro-thiophene-2-carboxylic Acid {(S)-1-[6-propyl-4-(3-trifluoromethyl-5,6-dihydro-8H-[1,2,4]triazolo[4,3-a]pyrazin-7-yl)-thieno[2,3-d]pyrimidin-2-yl]-pyrrolidin-3-yl}-amide]", "Ki": 48}, {"smiles": "CCCc1cc2c(N3CCn4c(nnc4C(F)(F)F)C3)nc(N3CC[C@H](NC(=O)c4cc(F)c(F)c(F)c4)C3)nc2s1", "note": "[Example 9-13, 3,4,5-Trifluoro-N-{(S)-1-[6-propyl-4-(3-trifluoromethyl-5,6-dihydro-8H-[1,2,4]triazolo[4,3-a]pyrazin-7-yl)-thieno[2,3-d]pyrimidin-2-yl]-pyrrolidin-3-yl}-benzamide]", "Ki": 300}, {"smiles": "CCCc1cc2c(N3CCn4c(nnc4C(F)(F)F)C3)nc(N3CC[C@H](NC(=O)NC4CCCC4)C3)nc2s1", "note": "[Example 9-15, 1-Cyclopentyl-3-{(S)-1-[6-propyl-4-(3-trifluoromethyl-5,6-dihydro-8H-[1,2,4]triazolo[4,3-a]pyrazin-7-yl)-thieno[2,3-d]pyrimidin-2-yl]-pyrrolidin-3-yl}-urea]", "Ki": 42}, {"smiles": "CCCc1cc2c(N3CCn4c(nnc4C(F)(F)F)C3)nc(N3CC[C@H](NC(=O)Nc4ccc(F)c(F)c4)C3)nc2s1", "note": "[Example 9-16, 1-(3,4-Difluoro-phenyl)-3-{(S)-1-[6-propyl-4-(3-trifluoromethyl-5,6-dihydro-8H-[1,2,4]triazolo[4,3-a]pyrazin-7-yl)-thieno[2,3-d]pyrimidin-2-yl]-pyrrolidin-3-yl}-urea]", "Ki": 880}, {"smiles": "CCCc1cc2c(N3CCn4c(nnc4C(F)(F)F)C3)nc(N3CC[C@H](NC(=O)NS(=O)(=O)c4ccc(Cl)s4)C3)nc2s1", "note": "[Example 9-17]", "Ki": 19}, {"smiles": "CCCc1cc2c(N3CCn4c(nnc4C(F)(F)F)C3)nc(N3CC[C@H](NC(=O)OC)C3)nc2s1", "note": "[Example 9-18, {(S)-1-[6-Propyl-4-(3-trifluoromethyl-5,6-dihydro-8H-[1,2,4]triazolo[4,3-a]pyrazin-7-yl)-thieno[2,3-d]pyrimidin-2-yl]-pyrrolidin-3-yl}-carbamic acid methyl ester]", "Ki": 10}, {"smiles": "CCCc1cc2c(N3CCn4c(nnc4C(F)(F)F)C3)nc(OCCNC(=O)OC)nc2s1", "note": "[Example 9-19, {2-[6-Propyl-4-(3-trifluoromethyl-5,6-dihydro-8H-[1,2,4]triazolo[4,3-a]pyrazin-7-yl)-thieno[2,3-d]pyrimidin-2-yloxy]-ethyl}-carbamic acid methyl ester]", "Ki": 3}, {"smiles": "CCCc1cc2c(N3CCn4c(nnc4C(F)(F)F)C3)nc(N3CC[C@@H](NC(=O)OC)C3)nc2s1", "note": "[Example 9-20, {(R)-1-[6-Propyl-4-(3-trifluoromethyl-5,6-dihydro-8H-[1,2,4]triazolo[4,3-a]pyrazin-7-yl)-thieno[2,3-d]pyrimidin-2-yl]-pyrrolidin-3-yl}-carbamic acid methyl ester]", "Ki": 6}]}]}
